Results from publication PMC4018403, “Transient Receptor Potential Ankyrin 1 Receptor Activation In Vitro and In Vivo by Pro-tussive Agents: GRC 17536 as a Promising Anti-Tussive Therapeutic” (PLoS ONE, 2014).
“Also recorded” adds a separate entry of the source. Where two headings read alike, the source gives them in different places.

Key:
TRPA1 [1] = target: T1, TRPA1 (Homo sapiens, UniProt O75762); parameters: A549 cells have been reported to express endogenous TRPA1; host or cells: A549; method as in PMID 21848366; details: A549 cells; read-out: IC50 with AITC as agonist; cited from earlier work
[2] = test system: citric acid induced cough response; assay: Citric acid induced conscious cough model; assay type: in vivo, guinea pig; details: 2 h before citric acid aerosol (0.4 M); for Inhibition of cough compared to vehicle: coughs recorded 10 minutes
Procedure: Male Hartley guinea pigs (200–600 g, Harlan, UK) were acclimatized in cages (20–22°C, with a light/dark cycle of 12/12 hours) before beginning of the experiments and were maintained on an ad lib standard guinea pig pellet diet and water containing dietary amounts of ascorbic acid.
Cough was detected both by pressure change and by sound and recorded with a Buxco cough analyzer (Buxco, Wilmington, NC, USA) as described earlier. Guinea pigs were randomly assigned to various test groups and were treated with different doses of GRC 17536 or Dextromethorphan i.p. before tussive challenge. The Vehicle control group received only 0.5% methyl cellulose. Two hours after i.p. administration of vehicle or test compounds, animals were placed in individual whole body plethysmographs and were exposed to citric acid aerosol (0.4 M) and the incidences of cough were recorded for 10 minutes with the help of Buxco cough analyzer.
For in vitro experiments, data was analyzed using GraphPad Prism 3.0 (GraphPad Software Inc. San Diego, CA, USA). For in vivo experiment, data from the treatment groups were compared with the control group. Mean values were statistically analyzed by one-way analysis of variance (ANOVA) followed by the Dunnett's Multiple Comparisons Test to evaluate significant differences between groups.

[3] = Plasma concentration in the cough model; assay type: in vivo; details: at the EDmax dose (∼89% suppression of cough), guinea pig, i.p.
TRPA1 [4] = target: T1, TRPA1; assay: Citric acid-induced Ca+2 influx in CCD19-Lu cells; assay type: cell-based; parameters: A549 cells have been reported to express endogenous TRPA1; host or cells: A549
Procedure: (§1) Human lung fibroblast cells, CCD19-Lu (ATCC CCL-210) were obtained from American Type Culture Collection (ATCC; Rockville, MD, USA) and cultured in MEM supplemented with 10% FBS. Human pulmonary alveolar epithelial cell line A549 (ATCC CCL-185) was also obtained from ATCC and maintained in DMEM F-12 supplemented with 10% FBS. Both the cell types were cultured at 37°C in humidified air containing 5% CO2. Chinese hamster ovary (CHO) cells stably expressing human TRPA1 (hTRPA1/CHO), TRPV1 (hTRPV1/CHO), TRPV3 (hTRPV3/CHO), TRPV4 (hTRPV4/CHO and TRPM8 (hTRPM8/CHO were generated in-house and maintained in DMEM F-12 supplemented with 10% FBS and G418.
(§2) Fluorimetric and radiometric Ca^+2 influx assay was performed as described earlier. GRC 17536, GRC 17770, compound 7 or GRC 6211 was added to the cells 15 minutes prior to addition of agonist. Citric acid stock solution (1 M) was prepared in dH2O. Subsequent dilutions were made in Ca^+2, Mg^+2 free PBS (pH 7.3). No significant change in pH was observed upto 10 mM citric acid. At 30 mM concentration of citric acid, the pH of the solution dropped to 5.5. TLR ligands - LPS (10 µg/ml, TLR4), loxoribine (10 µM, TLR7) and ssRNA40 (1 µg/ml, TLR8) were dissolved in media and added to the cells for 16–18 hours. TRP selectivity of GRC 17536 and compound 7 was performed for TRPV1, TRPV3, TRPV4 and TRPM8 using Capsaicin (1 µM), 2-APB (1 mM), 4α-PDD (30 µM) and Icilin (250 nM) respectively, as agonist.

TRPA1 [5] = target: T1, TRPA1; assay: Citric acid-induced Ca+2 influx in hTRPA1/CHO cells; assay type: cell-based; parameters: expressed in transfected cells
Procedure: as §1, §2

TRPM8 = target: T2, TRPM8 (Homo sapiens, UniProt Q7Z2W7); assay: TRP selectivity, hTRPM8/CHO, Icilin as agonist; assay type: cell-based; details: agonist Icilin (250 nM)
T2 construct: expressed in transfected cells
Procedure: as §1
as §2, with “TRP selectivity of GRC 17536 and compound 7 was performed for TRPV1, TRPV3, TRPV4 and TRPM8 using Capsaicin (1 µM), 2-APB (1 mM), 4α-PDD (30 µM) and Icilin (250 nM) respectively, as agonist.” left out

TRPA1 [6] = target: T1, TRPA1; parameters: method as in PMID 21848366; details: CCD19-Lu cells; read-out: IC50 with AITC as agonist; cited from earlier work
TRPA1 [7] = target: T1, TRPA1; assay: TLR ligand-enhanced 45Ca+2 uptake in hTRPA1/CHO cells; assay type: cell-based; parameters: expressed in transfected cells; details: hTRPA1/CHO
Procedure: as §1, §2

TRPV1 [8] = target: T3, TRPV1 (Homo sapiens, UniProt Q8NER1); assay: TRP selectivity, hTRPV1/CHO, Capsaicin as agonist; assay type: cell-based; details: agonist Capsaicin (1 µM)
T3 construct: expressed in transfected cells
Procedure: as §1
as §2, with “TRP selectivity of GRC 17536 and compound 7 was performed for TRPV1, TRPV3, TRPV4 and TRPM8 using Capsaicin (1 µM), 2-APB (1 mM), 4α-PDD (30 µM) and Icilin (250 nM) respectively, as agonist.” left out

TRPA1 [9] = target: T1, TRPA1; assay: Citric acid-induced Ca+2 influx in A549 cells; assay type: cell-based; parameters: A549 cells have been reported to express endogenous TRPA1; host or cells: A549
Procedure: as §1, §2

TRPV3 = target: T4, TRPV3 (Homo sapiens, UniProt Q8NET8); assay: TRP selectivity, hTRPV3/CHO, 2-APB as agonist; assay type: cell-based; details: agonist 2-APB (1 mM)
T4 construct: expressed in transfected cells
T4 sequence (Q8NET8 1-790): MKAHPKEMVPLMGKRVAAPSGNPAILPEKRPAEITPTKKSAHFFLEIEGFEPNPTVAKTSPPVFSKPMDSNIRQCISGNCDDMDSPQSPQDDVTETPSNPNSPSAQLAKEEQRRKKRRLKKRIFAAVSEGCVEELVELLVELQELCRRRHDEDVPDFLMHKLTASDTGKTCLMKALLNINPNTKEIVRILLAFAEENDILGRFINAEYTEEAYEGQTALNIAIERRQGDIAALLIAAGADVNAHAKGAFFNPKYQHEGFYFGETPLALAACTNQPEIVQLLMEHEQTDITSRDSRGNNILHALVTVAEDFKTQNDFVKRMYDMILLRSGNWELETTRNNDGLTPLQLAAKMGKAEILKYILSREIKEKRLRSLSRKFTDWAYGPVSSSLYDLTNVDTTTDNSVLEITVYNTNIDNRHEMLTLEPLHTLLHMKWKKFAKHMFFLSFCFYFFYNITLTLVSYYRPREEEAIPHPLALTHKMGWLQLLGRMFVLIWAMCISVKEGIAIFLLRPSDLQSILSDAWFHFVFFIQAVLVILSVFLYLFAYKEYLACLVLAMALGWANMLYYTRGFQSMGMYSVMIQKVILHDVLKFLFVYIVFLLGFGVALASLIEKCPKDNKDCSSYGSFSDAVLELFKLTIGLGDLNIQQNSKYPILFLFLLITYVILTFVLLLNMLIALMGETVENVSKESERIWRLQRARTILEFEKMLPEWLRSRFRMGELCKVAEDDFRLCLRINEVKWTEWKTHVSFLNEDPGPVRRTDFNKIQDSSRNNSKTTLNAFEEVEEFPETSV
Procedure: as §1
as §2, with “TRP selectivity of GRC 17536 and compound 7 was performed for TRPV1, TRPV3, TRPV4 and TRPM8 using Capsaicin (1 µM), 2-APB (1 mM), 4α-PDD (30 µM) and Icilin (250 nM) respectively, as agonist.” left out

TRPV4 = target: T5, TRPV4 (Homo sapiens, UniProt Q9HBA0); assay: TRP selectivity, hTRPV4/CHO, 4α-PDD as agonist; assay type: cell-based; details: agonist 4α-PDD (30 µM)
T5 construct: expressed in transfected cells
Procedure: as §1
as §2, with “TRP selectivity of GRC 17536 and compound 7 was performed for TRPV1, TRPV3, TRPV4 and TRPM8 using Capsaicin (1 µM), 2-APB (1 mM), 4α-PDD (30 µM) and Icilin (250 nM) respectively, as agonist.” left out

TRPA1 [10] = target: T1, TRPA1; assay: TLR ligand-enhanced 45Ca+2 uptake in A549 cells; assay type: cell-based; parameters: A549 cells have been reported to express endogenous TRPA1; host or cells: A549; details: A549
Procedure: as §1, §2

TRPV1 [11] = target: T3, TRPV1; assay: Citric acid effect on Ca+2 influx in hTRPV1/CHO cells; assay type: cell-based; details: data not shown
Procedure: as §1
as §2, with “TRP selectivity of GRC 17536 and compound 7 was performed for TRPV1, TRPV3, TRPV4 and TRPM8 using Capsaicin (1 µM), 2-APB (1 mM), 4α-PDD (30 µM) and Icilin (250 nM) respectively, as agonist.” left out

[12] = antagonist added 15 minutes prior to agonist, read-out: IC50, inhibition of citric acid induced Ca+2 influx
[13] = 10 nM, stated for both cell types
[14] = highest concentration of inducer, one range printed for CCD19-Lu and A549 together

T1 sequence (O75762 whole entry): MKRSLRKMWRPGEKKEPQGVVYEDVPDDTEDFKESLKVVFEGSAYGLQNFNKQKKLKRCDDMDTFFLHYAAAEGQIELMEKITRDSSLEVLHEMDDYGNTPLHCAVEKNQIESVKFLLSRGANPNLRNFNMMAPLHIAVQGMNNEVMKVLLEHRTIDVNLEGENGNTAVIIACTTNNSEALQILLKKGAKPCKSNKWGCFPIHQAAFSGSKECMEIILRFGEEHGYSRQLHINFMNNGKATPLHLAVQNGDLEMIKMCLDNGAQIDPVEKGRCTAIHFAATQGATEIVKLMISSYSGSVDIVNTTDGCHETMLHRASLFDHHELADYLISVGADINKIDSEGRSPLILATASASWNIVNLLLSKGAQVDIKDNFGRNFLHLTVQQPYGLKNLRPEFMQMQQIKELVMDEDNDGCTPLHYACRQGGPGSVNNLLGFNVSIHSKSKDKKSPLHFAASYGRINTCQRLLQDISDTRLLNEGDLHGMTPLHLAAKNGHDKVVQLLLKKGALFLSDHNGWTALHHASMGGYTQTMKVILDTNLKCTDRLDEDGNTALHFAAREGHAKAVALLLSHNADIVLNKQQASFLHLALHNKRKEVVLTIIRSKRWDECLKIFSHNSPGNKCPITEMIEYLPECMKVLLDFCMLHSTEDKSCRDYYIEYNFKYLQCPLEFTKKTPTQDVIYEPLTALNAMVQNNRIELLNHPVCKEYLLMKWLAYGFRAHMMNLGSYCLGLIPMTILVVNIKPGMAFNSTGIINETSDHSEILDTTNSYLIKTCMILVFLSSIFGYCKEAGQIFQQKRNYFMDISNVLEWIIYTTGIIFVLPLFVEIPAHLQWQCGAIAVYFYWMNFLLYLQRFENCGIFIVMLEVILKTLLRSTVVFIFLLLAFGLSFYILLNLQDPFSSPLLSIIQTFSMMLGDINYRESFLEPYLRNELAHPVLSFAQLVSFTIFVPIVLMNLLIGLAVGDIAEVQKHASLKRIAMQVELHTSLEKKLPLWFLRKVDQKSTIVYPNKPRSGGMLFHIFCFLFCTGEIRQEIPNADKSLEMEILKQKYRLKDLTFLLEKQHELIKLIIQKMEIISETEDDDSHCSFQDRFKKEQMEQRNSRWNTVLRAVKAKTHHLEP
T3 sequence (Q8NER1 whole entry): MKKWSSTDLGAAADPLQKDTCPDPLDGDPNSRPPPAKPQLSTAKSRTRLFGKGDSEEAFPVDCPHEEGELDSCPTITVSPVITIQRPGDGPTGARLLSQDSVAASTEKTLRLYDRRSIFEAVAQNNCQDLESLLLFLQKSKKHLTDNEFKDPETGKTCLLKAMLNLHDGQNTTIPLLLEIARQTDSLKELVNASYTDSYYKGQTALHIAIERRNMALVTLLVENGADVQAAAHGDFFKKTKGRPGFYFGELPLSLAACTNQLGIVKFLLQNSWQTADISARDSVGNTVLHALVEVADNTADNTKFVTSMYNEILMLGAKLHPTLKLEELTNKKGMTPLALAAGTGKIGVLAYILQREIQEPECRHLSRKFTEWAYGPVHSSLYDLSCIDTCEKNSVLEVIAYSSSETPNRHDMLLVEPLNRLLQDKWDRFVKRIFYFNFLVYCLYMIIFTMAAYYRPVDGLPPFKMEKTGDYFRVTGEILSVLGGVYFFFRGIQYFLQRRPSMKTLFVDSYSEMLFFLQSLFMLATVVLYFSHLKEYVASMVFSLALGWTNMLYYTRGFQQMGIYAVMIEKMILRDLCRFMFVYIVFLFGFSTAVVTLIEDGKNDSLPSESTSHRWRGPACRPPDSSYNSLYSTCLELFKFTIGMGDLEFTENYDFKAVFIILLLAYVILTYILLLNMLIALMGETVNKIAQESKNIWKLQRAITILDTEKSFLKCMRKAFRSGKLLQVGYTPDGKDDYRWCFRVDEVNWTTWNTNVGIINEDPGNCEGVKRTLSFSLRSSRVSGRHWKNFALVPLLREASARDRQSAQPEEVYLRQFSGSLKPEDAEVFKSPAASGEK
T2 sequence (Q7Z2W7 whole entry): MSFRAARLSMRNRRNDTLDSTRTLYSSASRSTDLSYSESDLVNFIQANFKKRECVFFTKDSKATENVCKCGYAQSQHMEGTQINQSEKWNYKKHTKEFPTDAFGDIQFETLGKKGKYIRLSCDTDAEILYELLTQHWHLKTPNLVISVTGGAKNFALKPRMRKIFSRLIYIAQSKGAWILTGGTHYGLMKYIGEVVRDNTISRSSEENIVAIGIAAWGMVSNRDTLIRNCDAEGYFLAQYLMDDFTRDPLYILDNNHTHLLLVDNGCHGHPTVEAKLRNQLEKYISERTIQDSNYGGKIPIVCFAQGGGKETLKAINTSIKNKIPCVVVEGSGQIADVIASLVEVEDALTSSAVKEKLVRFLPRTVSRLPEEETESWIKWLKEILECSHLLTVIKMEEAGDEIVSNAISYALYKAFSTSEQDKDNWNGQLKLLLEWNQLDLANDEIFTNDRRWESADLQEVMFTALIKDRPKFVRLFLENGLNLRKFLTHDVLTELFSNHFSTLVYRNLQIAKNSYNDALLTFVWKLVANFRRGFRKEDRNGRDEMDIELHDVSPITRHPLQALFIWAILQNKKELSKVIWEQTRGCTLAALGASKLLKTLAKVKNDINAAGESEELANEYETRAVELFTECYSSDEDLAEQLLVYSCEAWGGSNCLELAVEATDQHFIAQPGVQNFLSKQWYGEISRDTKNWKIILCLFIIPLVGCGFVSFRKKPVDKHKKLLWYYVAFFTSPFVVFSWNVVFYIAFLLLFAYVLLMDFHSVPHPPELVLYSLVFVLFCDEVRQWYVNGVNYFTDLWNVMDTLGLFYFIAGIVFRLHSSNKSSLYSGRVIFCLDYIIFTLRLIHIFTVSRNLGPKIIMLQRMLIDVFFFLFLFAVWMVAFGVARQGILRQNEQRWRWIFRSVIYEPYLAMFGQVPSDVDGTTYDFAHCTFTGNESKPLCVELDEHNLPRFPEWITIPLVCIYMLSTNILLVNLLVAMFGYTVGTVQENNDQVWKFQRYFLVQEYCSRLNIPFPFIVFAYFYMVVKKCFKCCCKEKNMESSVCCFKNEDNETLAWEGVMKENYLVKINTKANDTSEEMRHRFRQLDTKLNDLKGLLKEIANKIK
T5 sequence (Q9HBA0 whole entry): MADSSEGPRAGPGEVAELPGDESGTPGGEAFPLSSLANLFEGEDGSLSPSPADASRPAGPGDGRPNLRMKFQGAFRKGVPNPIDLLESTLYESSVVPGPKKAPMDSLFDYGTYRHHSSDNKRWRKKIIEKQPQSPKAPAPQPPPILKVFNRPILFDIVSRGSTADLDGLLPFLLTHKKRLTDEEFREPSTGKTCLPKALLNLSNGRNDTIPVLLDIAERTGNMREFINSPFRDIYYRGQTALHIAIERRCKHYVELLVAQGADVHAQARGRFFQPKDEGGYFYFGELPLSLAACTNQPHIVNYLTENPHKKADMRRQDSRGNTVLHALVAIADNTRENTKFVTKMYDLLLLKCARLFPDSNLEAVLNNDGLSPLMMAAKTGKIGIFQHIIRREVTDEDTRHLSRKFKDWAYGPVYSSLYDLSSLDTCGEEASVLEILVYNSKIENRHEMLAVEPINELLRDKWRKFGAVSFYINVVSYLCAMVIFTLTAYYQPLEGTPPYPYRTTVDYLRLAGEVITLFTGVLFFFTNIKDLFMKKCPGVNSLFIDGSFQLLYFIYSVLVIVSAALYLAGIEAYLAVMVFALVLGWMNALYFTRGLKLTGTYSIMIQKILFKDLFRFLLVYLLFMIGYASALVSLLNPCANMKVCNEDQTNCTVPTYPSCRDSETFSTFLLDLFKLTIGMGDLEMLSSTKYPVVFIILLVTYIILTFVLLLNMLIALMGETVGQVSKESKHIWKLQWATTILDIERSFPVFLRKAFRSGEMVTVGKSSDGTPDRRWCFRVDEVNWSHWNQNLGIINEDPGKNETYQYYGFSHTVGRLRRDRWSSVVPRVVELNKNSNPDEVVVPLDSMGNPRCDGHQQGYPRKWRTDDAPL

Cn1c(=O)c2c(CC(=O)Nc3nc(-c4ccc(F)c(C(F)(F)F)c4F)cs3)csc2n(C)c1=O [GRC 17536]
IC50 (TRPA1 [1]): 2.06 nM | Inhibition of cough response ([2]; 30 mg/kg i.p.): no significant protective response | Inhibition of cough compared to vehicle ([2]; 60 mg/kg i.p.): 79% | Inhibition of cough compared to vehicle ([2]; 100 mg/kg i.p.): 89% | Free mean plasma concentration [3]: around its in vitro IC50 value | IC50 (TRPA1 [4]; [12]): 8.2 nM | IC50 (TRPA1 [5]; [12]): 4.6 nM | % Inhibition at 1 µM, TRPM8 (TRPM8): 8.6% | IC50 (TRPA1 [6]): 2.71 nM | Inhibition of LPS + AITC induced 45Ca+2 uptake (TRPA1 [7]; 10 nM): 51.3% | Inhibition of Loxoribine + AITC induced 45Ca+2 uptake (TRPA1 [7]; 10 nM): 56.6% | Inhibition of ssRNA40 + AITC induced 45Ca+2 uptake (TRPA1 [7]; 10 nM): 63.0% | Inhibition of TLR ligand-enhanced 45Ca+2 uptake (summary) (TRPA1 [7]; [13]): ~50% | Inhibition of 45Ca+2 uptake at the highest concentration (summary) (TRPA1 [7]; 1 µM): Complete inhibition | Inhibition of LPS + AITC induced 45Ca+2 uptake (TRPA1 [7]; 1 µM): 98.4% | Inhibition of Loxoribine + AITC induced 45Ca+2 uptake (TRPA1 [7]; 1 µM): 98.6% | Inhibition of ssRNA40 + AITC induced 45Ca+2 uptake (TRPA1 [7]; 1 µM): 96.1% | % Inhibition at 1 µM, TRPV1 (TRPV1 [8]): 5.6% | IC50 (TRPA1 [9]; [12]): 5 nM | % Inhibition at 1 µM, TRPV3 (TRPV3): 27.3% | % Inhibition at 1 µM, TRPV4 (TRPV4): 8.2% | Inhibition of LPS + AITC induced 45Ca+2 uptake (TRPA1 [10]; 10 nM): 40.4% | Inhibition of Loxoribine + AITC induced 45Ca+2 uptake (TRPA1 [10]; 10 nM): 68.1% | Inhibition of ssRNA40 + AITC induced 45Ca+2 uptake (TRPA1 [10]; 10 nM): 53.2% | Inhibition of TLR ligand-enhanced 45Ca+2 uptake (summary) (TRPA1 [10]; [13]): ~50% | Inhibition of 45Ca+2 uptake at the highest concentration (summary) (TRPA1 [10]; 1 µM): Complete inhibition | Inhibition of LPS + AITC induced 45Ca+2 uptake (TRPA1 [10]; 1 µM): 95.3% | Inhibition of Loxoribine + AITC induced 45Ca+2 uptake (TRPA1 [10]; 1 µM): 97.4% | Inhibition of ssRNA40 + AITC induced 45Ca+2 uptake (TRPA1 [10]; 1 µM): 98.7%

O=C(O)CC(O)(CC(=O)O)C(=O)O [citric acid]
Citric acid concentration of maximum Ca+2 influx (TRPA1 [4]): 10 mM | Citric acid concentration that elicited a drop in Ca+2 influx (TRPA1 [4]): 30 mM | Induction of Ca+2 influx over basal (TRPA1 [4]; [14]): 4–20 fold | Citric acid concentration of peak Ca+2 influx (TRPA1 [5]): 3 mM | Citric acid concentration that elicited a drop in Ca+2 influx (TRPA1 [5]): 10 mM | Ca+2 influx over basal (TRPA1 [5]; highest concentration of citric acid): ~40 fold | Ca+2 influx response to citric acid (TRPV1 [11]): lack of any significant response; also recorded: did not observe any increase | Citric acid concentration of peak Ca+2 influx (TRPA1 [9]): 3 mM | Citric acid concentration that elicited a drop in Ca+2 influx (TRPA1 [9]): 5 mM | Induction of Ca+2 influx over basal (TRPA1 [9]; [14]): 4–20 fold

O=C(Nc1cccc2cnccc12)N[C@@H]1CC2(CCC2)Oc2ccc(F)cc21 [GRC 6211]
Inhibition of citric acid induced increase in Ca+2 (TRPA1 [4]; up to 10 µM antagonist): failed to inhibit | Inhibition of citric acid induced increase in Ca+2 (TRPA1 [9]; up to 10 µM antagonist): failed to inhibit
